Experimental data from patent publication US12492164B2, “Fluorine substituted cyclohexene analogues of gamma-aminobutyric acid (GABA)” (Northwestern University, priority 2019, dated 2025).
Structures can show the parent of a compound that is named as a salt. Where two headings read alike, the source gives them in different places.

Columns and labels:
hOAT = biological target: T1, hOAT (Homo sapiens, UniProt P04181); experiment: Coupled enzyme assay, time-dependent inactivation of hOAT; assay type: biochemical
T1 construct: made in house
T1 sequence (P04181 26-439): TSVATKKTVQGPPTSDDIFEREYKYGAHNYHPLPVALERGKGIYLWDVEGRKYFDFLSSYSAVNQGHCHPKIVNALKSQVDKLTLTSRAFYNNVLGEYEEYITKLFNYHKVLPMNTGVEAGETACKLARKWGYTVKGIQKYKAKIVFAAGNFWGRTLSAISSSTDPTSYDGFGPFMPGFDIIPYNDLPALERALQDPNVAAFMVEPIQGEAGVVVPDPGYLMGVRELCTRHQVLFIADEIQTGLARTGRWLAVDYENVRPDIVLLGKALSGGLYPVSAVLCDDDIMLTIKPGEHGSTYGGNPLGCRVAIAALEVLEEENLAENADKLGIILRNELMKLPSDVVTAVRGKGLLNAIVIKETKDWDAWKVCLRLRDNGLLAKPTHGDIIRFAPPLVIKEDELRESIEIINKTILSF
Procedure: (§1) Kinetic Studies of Fluorine-Substituted Cyclohexene Analogues.
(§2) hOAT and PYCR1 were expressed, grown, and purified according to literature procedures.4, 5 GABA-AT was isolated from pig brains and purified according to a literature procedure.6 Coupled enzyme assays for GABA-AT, hOAT, Ala-AT, and Asp-AT were carried out according to previous procedures.7, 8

GABA-AT = biological target: T2, GABA-AT (Sus scrofa, UniProt P80147); experiment: Coupled enzyme assay, time-dependent inactivation of GABA-AT; assay type: biochemical, pig
T2 construct: GABA-AT was isolated from pig brains and purified according to a literature procedure; from tissue; host or cells: pig brain
Procedure: as §1, §2

HCC tumor = conditions: doses of 0.1 and 1.0 mg/kg; cited from earlier work
[1] = read-out: kinact/KI (converted)
[2] = inactivation of GABA-AT, pH 8.0
[3] = inactivation of GABA-AT, pH 8.0, read-out: kinact/KI (converted)
[4] = GABA-AT, pH 8.0, bound: KI is greater than kobs (max)/ratio (footnote b)
[5] = GABA-AT, pH 8.0, bound: kinact is greater than maximum kobs in time-dependent assay (footnote b)

T2 sequence (P80147 29-500): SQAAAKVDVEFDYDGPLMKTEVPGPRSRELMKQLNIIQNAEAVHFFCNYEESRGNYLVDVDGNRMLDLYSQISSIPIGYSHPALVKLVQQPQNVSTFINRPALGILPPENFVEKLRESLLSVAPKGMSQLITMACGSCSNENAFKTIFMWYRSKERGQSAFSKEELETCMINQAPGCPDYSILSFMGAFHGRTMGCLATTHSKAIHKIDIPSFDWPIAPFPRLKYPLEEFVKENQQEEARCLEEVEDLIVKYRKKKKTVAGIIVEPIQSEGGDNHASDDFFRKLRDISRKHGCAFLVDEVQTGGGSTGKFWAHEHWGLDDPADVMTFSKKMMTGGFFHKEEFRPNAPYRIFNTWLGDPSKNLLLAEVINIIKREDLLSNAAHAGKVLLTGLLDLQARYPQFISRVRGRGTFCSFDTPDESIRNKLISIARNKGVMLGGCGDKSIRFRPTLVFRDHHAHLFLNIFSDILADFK

kinact/KI (hOAT; [1]) | Ki (GABA-AT; [2]) | kinact (GABA-AT; [2]) | kinact/KI (GABA-AT; [3]) | Ki (hOAT) | kinact (hOAT; read-out: kinact (converted)) | Ki (GABA-AT; GABA-AT, pH 6.5) | kinact (GABA-AT; GABA-AT, pH 6.5) | kinact/KI (GABA-AT; GABA-AT, pH 6.5, read-out: kinact/KI (converted)) | kinact/KI (GABA-AT; GABA-AT, pH 8.0, ratio determined by the slope of kobs vs [I] (footnote b), read-out: kinact/KI (converted)) | Structure (SMILES) | kinact (hOAT) | kinact/KI (hOAT) | in vivo HCC tumor growth (HCC tumor) | α-fetoprotein levels (a biomarker for HCC) (HCC tumor) | Ki (GABA-AT; [4]) | kinact (GABA-AT; [5]) | kinact/KI (GABA-AT; pH 8)
1 M⁻¹ s⁻¹ | 78 ± 40 µM | 0.000283 s⁻¹ | 3.67 M⁻¹ s⁻¹ |  |  |  |  |  |  | N[C@H]1C[C@@H](C(=O)O)C[C@@H]1F [Compound 1, (1R,3S,4S)-3-amino-4-fluorocyclopentane-1-carboxylic acid, reference compound] |  |  |  |  |  |  | 
0.283 M⁻¹ s⁻¹ | 4280 ± 2050 µM | 0.000467 s⁻¹ | 0.108 M⁻¹ s⁻¹ | 4380 ± 860 µM | 0.00125 s⁻¹ |  |  |  |  | N[C@H]1CC(C(=O)O)=CC[C@@H]1F [Compound 10, (4S,5S)-5-Amino-4-fluorocyclohex-1-ene-1-carboxylic acid hydrochloride] |  |  |  |  |  |  | 

More lines, now with the values behind:

Structure (SMILES) | kinact/KI (hOAT; [1]) | Ki (GABA-AT; [2]) | kinact (GABA-AT; [2]) | kinact/KI (GABA-AT; [3]) | Ki (hOAT) | kinact (hOAT; read-out: kinact (converted)) | Ki (GABA-AT; GABA-AT, pH 6.5) | kinact (GABA-AT; GABA-AT, pH 6.5) | kinact/KI (GABA-AT; GABA-AT, pH 6.5, read-out: kinact/KI (converted)) | kinact/KI (GABA-AT; GABA-AT, pH 8.0, ratio determined by the slope of kobs vs [I] (footnote b), read-out: kinact/KI (converted)) | kinact (hOAT) | kinact/KI (hOAT) | in vivo HCC tumor growth (HCC tumor) | α-fetoprotein levels (a biomarker for HCC) (HCC tumor) | Ki (GABA-AT; [4]) | kinact (GABA-AT; [5]) | kinact/KI (GABA-AT; pH 8)
N[C@H]1C[C@@H](C(=O)O)CC1=C(C(F)(F)F)C(F)(F)F [Compound 7, (1S,3S)-3-Amino-4-(hexafluoropropan-2-ylidenyl)cyclopentane-1-carboxylic Acid, reference compound] |  |  |  |  | 65 ± 10 µM |  |  |  |  |  | 0.00095 ± 5e-05 s⁻¹ | 14.5 M⁻¹ s⁻¹ | suppressed | dramatically reduced |  |  | 
N[C@H]1C=C(C(=O)O)CC[C@@H]1F [Compound 8, (3S,4S)-3-Amino-4-fluorocyclohex-1-ene-1-carboxylic acid hydrochloride] | 42.7 M⁻¹ s⁻¹ | 2530 ± 710 µM | 0.00163 s⁻¹ | 0.65 M⁻¹ s⁻¹ | 31 ± 7 µM | 0.00133 s⁻¹ |  |  |  |  |  |  |  |  |  |  | 
N[C@H]1C=C(C(=O)O)CCC1(F)F [Compound 9, (S)-3-Amino-4,4-difluorocyclohex-1-ene-1-carboxylic acid hydrochloride] | 339 M⁻¹ s⁻¹ |  |  |  | 2.3 ± 0.7 µM | 0.0008 s⁻¹ | 1100 µM | 0.00333 s⁻¹ | 3 M⁻¹ s⁻¹ | 25.3 M⁻¹ s⁻¹ |  |  |  |  | > 120 µM | > 0.003 s⁻¹ | 
N[C@H]1CC(C(=O)O)=CCC1(F)F [Compound 11, (S)-5-Amino-4,4-difluorocyclohex-1-ene-1-carboxylic acid hydrochloride] | 2.5 M⁻¹ s⁻¹ |  |  |  | 540 ± 17 µM | 0.00138 s⁻¹ |  |  |  |  |  |  |  |  | > 9630 µM | > 0.00483 s⁻¹ | 0.5 M⁻¹ s⁻¹
